Measurements: patent US12359169B2, “Universal CAR-T cell and preparation method and use thereof” (SHANGHAI LONGYAO BIOTECHNOLOGY INC., LTD., priority 2018, dated 2025)

Columns and labels:
CD3^−20uCAR-T cells = test: Regulation of U-CAR-T survival by ganciclovir in vivo (Raji xenograft); conditions: NSG mice with Raji, FIG. 4C
Procedure: NSG mice (n=6/group) were injected intravenously with 5×10^5 Raji, which was followed by the administration of 1×10^7 CD3^−20uCAR-T cells on day 7 or two hundred micrograms of Ganciclovir were administered on day 7, 10 and 13. 7 days after the treatment, bone marrow, spleen and peripheral blood were collected for analysis of CAR-T cell (mCD45^−hCD45^+hCD3^+) persistence and Raji (mCD45^−hCD45^+hCD19^+) tumor cell burden (FIG. 4C). Statistical significance was determined by Mann-Whitney U test and presented by *P<0.05, **P<0.01, ***P<0.001; NS: Not Significant. Statistical significance was determined by unpaired t test. Statistical significance was presented by *P<0.05, ***P<0.001.

U-CAR-T cells = test: Regulation of U-CAR-T survival by ganciclovir in vitro; format: cell-based, human; conditions: ganciclovir 0-3 μg/mL, 48 hours, anti-CD20 and anti-CD19 U-CAR-T, FIG. 4A
Procedure: The anti-CD20 U-CAR-T cells obtained in Example 1, anti-CD19 U-CAR-T cells (prepared according to the method in Example 1) and the control CAR-T (without knockout of CD3) were inoculated into 96-well plates, and the number of surviving CAR-Ts was compared after 48 hours by adding the indicated concentration of ganciclovir (0, 0.1 μg/mL, 0.3 μg/mL, 1 μg/mL, 3 μg/mL), and the results are shown in FIG. 4A.

CD3 gene = test: sgRNA knockdown efficiency assay (transient transfection, flow detection with anti-TCR antibody); format: cell-based, human; conditions: Jurkat cells, 0.6 μg pLenti-CrisprV2 plasmid, harvested at 48 h, FIG. 1F
Procedure: 2×10^5 Jurkat cells were transiently transfected with 0.6 μg pLenti-CrisprV2-hCD3E1/E2/D1/D2/Z1/Z2/G1/G2/G3 plasmids and cells were harvested at 48 h. Anti-TCR antibody was used for flow detection and untransfected plasmids were used as negative control.
The box in the figure represented the knockdown efficiency, where Z1 has the highest knockdown efficiency (about 81.2%).

| Compound | clearance of CD3− UCAR-T cells from organs (CD3^−20uCAR-T cells; 200 micrograms ganciclovir on day 7, 10 and 13, bone marrow, spleen, peripheral blood) | tumor load (CD3^−20uCAR-T cells; CD3− UCAR-T plus ganciclovir, compared to CD3+ CAR-T) | number of surviving CAR-Ts (survival of U-CAR-T) (U-CAR-T cells) | knockdown efficiency (CD3 gene) |
| --- | --- | --- | --- | --- |
| Nc1nc(O)c2ncn(COC(CO)CO)c2n1 [ganciclovir] | effectively cleared | elevated tumor load | can regulate the survival of U-CAR-T |  |
| Z1: sgRNA for knockout of CD3 zeta, SEQ ID NO: 8, GTGGAAGGCGCTTTTCACCG (listed as DNA, chemistry not given here) |  |  |  | about 81.2% |
